Molecules are shown by their SMILES.

In general, IC50 refers to the concentration that inhibits the measured activity by half.

In experiment [1] the target is human Class I PI3 kinase γ (Homo sapiens (Human), UniProt P48736). The experiment in a line: PI3-Kinase Promega ADP-Glo Max assay, γ isoform. It is filed as biochemical. The note with it: 40 nM kinase, 3 mM ATP, 500 uM diC8-PtdInsP; read-out: Promega γ PI3K IC50. As for the experimental part: Promega ADP-Glo Max assay kit (Cat. No. V7002) was utilized to determine IC50 values for α, β, δ and γ isoforms of human Class I PI3 kinases (Millipore). Samples of kinase (20 nM α or δ, 40 nM β or γ isoform) were incubated with compound for 15 minutes at room temperature in reaction buffer (15 mM HEPES pH 7.4, 20 mM NaCl, 1 mM EGTA, 0.02% Tween 20, 10 mM MgCl2, 0.2 mg/mL bovine-γ-globulins) followed by addition of ATP/diC8-PtdInsP mixture to give final concentrations of 3 mM ATP and 500 uM diC8-PtdInsP. Reactions were incubated at room temperature for 2 hours followed by addition of 25 uL of stop solution. After a 40-minute incubation at room temperature, 50 uL of Promega detection mix was added followed by incubation for 1 hour at room temperature. Plates were then read on Envision plate reader in luminescence mode. Data was converted to % inhibition using the following equation below:
[formula] where S is the sample luminescence, Pos is a positive control without added PI3K, Neg is the negative control without added compound. Data was then plotted as % inhibition vs compound concentration.
Certain compounds provided herein were tested in PI3-Kinase Promega Assay using procedures as described above to determine IC50 values for α, β, δ and/or γ isoforms.
For orientation: ADP-Glo turns the ADP formed in a reaction into a luminescent signal.

The next experiment deals with p110 γ (RAW264.7 cells) (Mus musculus (Mouse), UniProt Q9JHG7). The experiment in a line: PI3K-γ selective cellular assay: phospho-AKT in C5a stimulated RAW264.7 macrophages. The class given is cell-based. The note with it: serum-starved RAW264.7 cells stimulated with C5a. Here is the method:
Certain compounds provided herein were tested in RAW 264.7 cell model using procedures as described above.

The next experiment deals with p110 δ (RAJI cells) (Homo sapiens (Human), UniProt O00329). As to the kind of experiment: PI3K-δ selective cellular assay: phospho-AKT in anti-human IgM stimulated RAJI cells. The class given is cell-based. Conditions: serum-starved RAJI cells stimulated with anti-human IgM. The source says:
A compound's ability in selectively inhibiting PI3K-δ can be assessed using RAJI cells, i.e., B lymphocyte cells derived from lymphoma patients. Briefly, serum-starved RAJI cells are stimulated with anti-human IgM, thereby causing signaling through the B-cell receptors, as described in, for example, He et al., Leukemia Research (2009) 33: 798-802. B-cell receptor signaling is important for the activation, differentiation, and survival of B cells and certain B-cell derived cancers. Reduction of phospho-AKT is indicative of compounds that may inhibit B-cell proliferation and function in certain diseases. […] Certain compounds provided herein were tested in RAJI cell model using procedures as described above.

Experiment [2] addresses human Class I PI3 kinase β (Homo sapiens (Human), UniProt P42338). As to the kind of experiment: PI3-Kinase Promega ADP-Glo Max assay, β isoform. The class given is biochemical. Conditions: 40 nM kinase, 3 mM ATP, 500 uM diC8-PtdInsP; read-out: Promega β PI3K IC50.
Protocol: Promega ADP-Glo Max assay kit (Cat. No. V7002) was utilized to determine IC50 values for α, β, δ and γ isoforms of human Class I PI3 kinases (Millipore). […] Reactions were incubated at room temperature for 2 hours followed by addition of 25 uL of stop solution. After a 40-minute incubation at room temperature, 50 uL of Promega detection mix was added followed by incubation for 1 hour at room temperature. Plates were then read on Envision plate reader in luminescence mode. Data was converted to % inhibition using the following equation below:
For experiment [3], the target named is human Class I PI3 kinase α (Homo sapiens (Human), UniProt P42336). As to the kind of experiment: PI3-Kinase Promega ADP-Glo Max assay, α isoform. It is filed as biochemical. The note with it: 20 nM kinase, 3 mM ATP, 500 uM diC8-PtdInsP; read-out: Promega α PI3K IC50.
Sequence of human Class I PI3 kinase α (P42336 whole entry, canonical isoform): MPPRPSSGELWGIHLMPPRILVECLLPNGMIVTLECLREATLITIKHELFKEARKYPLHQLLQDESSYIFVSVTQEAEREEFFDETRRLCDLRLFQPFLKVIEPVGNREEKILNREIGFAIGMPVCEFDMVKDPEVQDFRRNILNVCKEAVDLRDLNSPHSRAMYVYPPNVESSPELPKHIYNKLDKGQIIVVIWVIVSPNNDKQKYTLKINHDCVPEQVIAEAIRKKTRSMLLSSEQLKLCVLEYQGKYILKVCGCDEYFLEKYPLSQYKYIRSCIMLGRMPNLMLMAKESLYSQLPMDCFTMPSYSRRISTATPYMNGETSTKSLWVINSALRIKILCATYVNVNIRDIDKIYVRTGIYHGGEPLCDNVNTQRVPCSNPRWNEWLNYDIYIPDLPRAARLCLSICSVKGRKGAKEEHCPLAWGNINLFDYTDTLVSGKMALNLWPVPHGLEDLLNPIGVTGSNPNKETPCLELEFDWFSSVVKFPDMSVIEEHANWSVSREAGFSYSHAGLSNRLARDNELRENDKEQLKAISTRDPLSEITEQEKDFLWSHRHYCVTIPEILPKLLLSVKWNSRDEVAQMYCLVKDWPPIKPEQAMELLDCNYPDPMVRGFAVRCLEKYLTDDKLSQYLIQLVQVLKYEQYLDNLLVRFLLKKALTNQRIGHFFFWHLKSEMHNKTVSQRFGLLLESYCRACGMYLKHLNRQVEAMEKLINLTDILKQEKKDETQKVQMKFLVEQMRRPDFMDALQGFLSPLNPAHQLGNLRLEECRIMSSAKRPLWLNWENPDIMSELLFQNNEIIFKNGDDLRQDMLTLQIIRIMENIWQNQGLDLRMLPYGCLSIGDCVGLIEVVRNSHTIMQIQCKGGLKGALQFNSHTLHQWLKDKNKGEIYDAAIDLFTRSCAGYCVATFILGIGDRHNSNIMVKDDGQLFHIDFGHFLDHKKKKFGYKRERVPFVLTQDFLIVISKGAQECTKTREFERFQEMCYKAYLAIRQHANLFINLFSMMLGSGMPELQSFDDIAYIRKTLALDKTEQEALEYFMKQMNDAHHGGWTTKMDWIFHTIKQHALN
Sequence of human Class I PI3 kinase α (P27986 whole entry partner, canonical isoform): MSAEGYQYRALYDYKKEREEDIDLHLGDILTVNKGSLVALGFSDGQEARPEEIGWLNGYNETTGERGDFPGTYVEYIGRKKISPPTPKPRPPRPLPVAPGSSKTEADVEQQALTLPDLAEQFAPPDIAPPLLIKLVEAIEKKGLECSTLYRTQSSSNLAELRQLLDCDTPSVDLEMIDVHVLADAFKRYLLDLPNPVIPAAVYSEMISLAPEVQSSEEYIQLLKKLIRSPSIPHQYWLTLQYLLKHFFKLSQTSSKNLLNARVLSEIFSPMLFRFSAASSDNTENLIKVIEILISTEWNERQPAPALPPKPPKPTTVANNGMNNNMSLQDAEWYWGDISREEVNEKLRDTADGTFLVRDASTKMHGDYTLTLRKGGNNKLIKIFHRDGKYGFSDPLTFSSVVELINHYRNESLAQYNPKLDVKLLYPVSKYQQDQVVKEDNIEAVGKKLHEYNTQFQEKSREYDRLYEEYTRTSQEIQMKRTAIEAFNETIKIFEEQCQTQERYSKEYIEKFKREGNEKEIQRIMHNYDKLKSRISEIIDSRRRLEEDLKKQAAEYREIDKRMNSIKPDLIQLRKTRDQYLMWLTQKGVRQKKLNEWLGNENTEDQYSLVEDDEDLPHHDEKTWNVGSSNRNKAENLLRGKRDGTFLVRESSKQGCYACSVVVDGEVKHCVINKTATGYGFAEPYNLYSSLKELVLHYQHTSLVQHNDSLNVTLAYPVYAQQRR
Protocol: (§1) Promega ADP-Glo Max assay kit (Cat. No. V7002) was utilized to determine IC50 values for α, β, δ and γ isoforms of human Class I PI3 kinases (Millipore). […] Reactions were incubated at room temperature for 2 hours followed by addition of 25 uL of stop solution. After a 40-minute incubation at room temperature, 50 uL of Promega detection mix was added followed by incubation for 1 hour at room temperature. Plates were then read on Envision plate reader in luminescence mode. Data was converted to % inhibition using the following equation below: [formula] where S is the sample luminescence, Pos is a positive control without added PI3K, Neg is the negative control without added compound. Data was then plotted as % inhibition vs compound concentration.
The target of experiment [4] is human Class I PI3 kinase δ (Homo sapiens (Human), UniProt O00329). The experiment in a line: PI3-Kinase Promega ADP-Glo Max assay, δ isoform. It is filed as biochemical. Conditions: 20 nM kinase, 3 mM ATP, 500 uM diC8-PtdInsP; read-out: Promega δ PI3K IC50.
Sequence of human Class I PI3 kinase δ (O00329 whole entry, canonical isoform): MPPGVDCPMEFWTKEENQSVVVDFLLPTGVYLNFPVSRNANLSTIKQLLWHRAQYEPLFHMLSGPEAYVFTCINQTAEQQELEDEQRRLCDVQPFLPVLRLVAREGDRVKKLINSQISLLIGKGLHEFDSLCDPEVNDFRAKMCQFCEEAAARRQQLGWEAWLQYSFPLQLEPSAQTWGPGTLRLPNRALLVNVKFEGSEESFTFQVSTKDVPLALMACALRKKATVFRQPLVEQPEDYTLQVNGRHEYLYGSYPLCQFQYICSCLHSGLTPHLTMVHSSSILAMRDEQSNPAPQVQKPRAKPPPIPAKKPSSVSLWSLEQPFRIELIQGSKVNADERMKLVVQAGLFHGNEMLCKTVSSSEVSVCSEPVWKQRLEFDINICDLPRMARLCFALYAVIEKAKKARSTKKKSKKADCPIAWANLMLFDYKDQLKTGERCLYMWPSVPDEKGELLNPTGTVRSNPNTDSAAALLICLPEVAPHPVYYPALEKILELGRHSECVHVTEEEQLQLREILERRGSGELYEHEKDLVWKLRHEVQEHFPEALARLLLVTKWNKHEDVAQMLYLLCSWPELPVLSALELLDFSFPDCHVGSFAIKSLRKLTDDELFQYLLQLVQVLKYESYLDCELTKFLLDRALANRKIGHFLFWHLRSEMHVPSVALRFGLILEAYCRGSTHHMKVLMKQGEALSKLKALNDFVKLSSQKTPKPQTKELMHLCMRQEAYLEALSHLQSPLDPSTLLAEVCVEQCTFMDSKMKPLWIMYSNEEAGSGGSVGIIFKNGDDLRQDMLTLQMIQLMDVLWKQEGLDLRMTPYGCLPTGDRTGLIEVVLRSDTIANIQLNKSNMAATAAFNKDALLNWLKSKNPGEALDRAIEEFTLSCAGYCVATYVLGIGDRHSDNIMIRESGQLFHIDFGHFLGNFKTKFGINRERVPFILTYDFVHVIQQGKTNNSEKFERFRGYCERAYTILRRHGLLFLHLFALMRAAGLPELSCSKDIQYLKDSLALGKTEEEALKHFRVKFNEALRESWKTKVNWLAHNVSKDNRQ
Sequence of human Class I PI3 kinase δ (P27986 whole entry partner, canonical isoform): as the sequence (P27986 whole entry partner, canonical isoform) above
Protocol: as §1

Sequence of p110 γ (RAW264.7 cells) (Q9JHG7 whole entry): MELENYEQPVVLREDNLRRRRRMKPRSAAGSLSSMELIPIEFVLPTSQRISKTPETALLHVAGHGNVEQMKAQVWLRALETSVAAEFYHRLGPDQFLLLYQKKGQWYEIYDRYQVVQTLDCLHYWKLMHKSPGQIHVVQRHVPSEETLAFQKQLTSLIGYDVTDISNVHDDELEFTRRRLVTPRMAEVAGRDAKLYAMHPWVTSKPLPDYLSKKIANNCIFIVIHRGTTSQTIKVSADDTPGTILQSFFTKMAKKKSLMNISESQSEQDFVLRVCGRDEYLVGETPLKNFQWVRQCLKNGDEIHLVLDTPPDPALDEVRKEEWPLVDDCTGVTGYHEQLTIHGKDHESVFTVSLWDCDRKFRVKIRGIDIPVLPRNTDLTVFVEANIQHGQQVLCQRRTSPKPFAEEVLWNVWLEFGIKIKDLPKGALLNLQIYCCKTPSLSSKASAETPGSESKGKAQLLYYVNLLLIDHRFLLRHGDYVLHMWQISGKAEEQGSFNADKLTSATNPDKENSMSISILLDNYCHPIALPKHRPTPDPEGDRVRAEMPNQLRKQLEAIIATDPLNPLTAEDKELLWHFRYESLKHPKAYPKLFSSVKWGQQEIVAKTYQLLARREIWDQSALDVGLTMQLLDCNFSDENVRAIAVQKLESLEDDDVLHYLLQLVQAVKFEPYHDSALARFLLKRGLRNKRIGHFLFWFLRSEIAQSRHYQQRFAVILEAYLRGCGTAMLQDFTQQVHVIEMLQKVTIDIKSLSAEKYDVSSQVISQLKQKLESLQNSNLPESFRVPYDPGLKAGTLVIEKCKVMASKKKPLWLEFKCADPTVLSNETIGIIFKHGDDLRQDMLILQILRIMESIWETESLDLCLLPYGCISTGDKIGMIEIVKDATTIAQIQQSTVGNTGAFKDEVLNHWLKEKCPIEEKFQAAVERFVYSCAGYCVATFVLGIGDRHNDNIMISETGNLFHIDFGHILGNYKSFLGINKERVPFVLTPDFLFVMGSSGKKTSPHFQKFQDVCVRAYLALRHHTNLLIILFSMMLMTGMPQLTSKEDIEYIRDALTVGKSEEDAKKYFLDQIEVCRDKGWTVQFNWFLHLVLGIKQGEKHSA
Sequence of p110 δ (RAJI cells) (O00329 whole entry): as the sequence (O00329 whole entry, canonical isoform) above
Sequence of p110 δ (RAJI cells) (P27986 whole entry partner): as the sequence (P27986 whole entry partner, canonical isoform) above

As to `C[C@H](NC(=O)c1nccnc1N)c1nc2cccc(Cl)c2c(=O)n1-c1ccc(F)cc1` [Compound 46], the IC50 in experiment [1] was in the range of 100 to 500 nM; against p110 γ (RAW264.7 cells) it was 10 to 100 nM; at p110 δ (RAJI cells), 1 to 10 nM; in experiment [2], 1000 to 10000 nM; in experiment [3], 1000 to 10000 nM; in experiment [4], 1000 to 10000 nM.
For the molecule `C[C@H](NC(=O)c1c(N)nn2cccnc12)c1cc2cccc(-c3cnn(CC#N)c3)c2c(=O)n1-c1ccccc1` [Compound 48], the IC50 in experiment [1] was 100 to 500 nM; against p110 γ (RAW264.7 cells), 10 to 100 nM; at p110 δ (RAJI cells) it was 100 to 500 nM; in experiment [2] it was 1000 to 10000 nM; in experiment [3] it was 1000 to 10000 nM; in experiment [4], 1000 to 10000 nM.
Turning to `C[C@H](NC(=O)c1c(N)nn2cccnc12)c1cc2cccc(-c3cnn(CC(F)(F)F)c3)c2c(=O)n1-c1ccccc1` [Compound 50], the IC50 in experiment [1] lay in the range of 100 to 500 nM; against p110 γ (RAW264.7 cells), 10 to 100 nM; on p110 δ (RAJI cells), 100 to 500 nM; in experiment [2], 1000 to 10000 nM; in experiment [3], 1000 to 10000 nM; in experiment [4], 1000 to 10000 nM.
Take `C[C@H](NC(=O)c1nccnc1N)c1cc2cccc(C(F)(F)F)c2c(=O)n1-c1ccccc1` [Compound 52]: the IC50 in experiment [1] lay within 500 to 1000 nM; on p110 γ (RAW264.7 cells), 10 to 100 nM; against p110 δ (RAJI cells), 10 to 100 nM; in experiment [2] it was 1000 to 10000 nM; in experiment [3], 1000 to 10000 nM; in experiment [4], 500 to 1000 nM.
Regarding `C[C@H](NC(=O)c1c(N)nn2cccnc12)c1cc2cccc(Cl)c2c(=O)n1CCCNS(C)(=O)=O` [Compound 53], the IC50 in experiment [1] lay within 10 to 100 nM; on p110 γ (RAW264.7 cells), 100 to 500 nM; at p110 δ (RAJI cells) it was 1 to 10 nM; in experiment [2], 10 to 100 nM; in experiment [3], 500 to 1000 nM; in experiment [4] it was 100 to 500 nM.
Take `CNS(=O)(=O)CCn1c([C@H](C)NC(=O)c2c(N)nn3cccnc23)cc2cccc(Cl)c2c1=O` [Compound 54]: the concentration for half-maximal inhibition (IC50) in experiment [1] was in the range of 10 to 100 nM; at p110 γ (RAW264.7 cells), 10 to 100 nM; against p110 δ (RAJI cells) it was 10 to 100 nM; in experiment [2], 100 to 500 nM; in experiment [3] it was 1000 to 10000 nM; in experiment [4] it was 100 to 500 nM.
Turning to `C[C@H](NC(=O)c1c(N)nn2cccnc12)c1cc2cccc(Cl)c2c(=O)n1CCc1nnnn1C` [Compound 55], the IC50 in experiment [1] is 100 to 500 nM; against p110 γ (RAW264.7 cells) it was 100 to 500 nM; at p110 δ (RAJI cells), 10 to 100 nM; in experiment [2], 100 to 500 nM; in experiment [3], 1000 to 10000 nM; in experiment [4], 1000 to 10000 nM.
As for `C[C@H](NC(=O)c1c(N)nn2cccnc12)c1cc2cccc(Cl)c2c(=O)n1CCc1nnn(C)n1` [Compound 56], the IC50 in experiment [1] lay within 1000 to 10000 nM; against p110 γ (RAW264.7 cells), 100 to 500 nM; against p110 δ (RAJI cells), 10 to 100 nM; in experiment [2], 500 to 1000 nM; in experiment [3], 1000 to 10000 nM; in experiment [4], 1000 to 10000 nM.
Take `C[C@H](NC(=O)c1c(N)nn2cccnc12)c1cc2cccc(Cl)c2c(=O)n1CCCS(C)(=O)=O` [Compound 57]: the IC50 lay within 100 to 500 nM in experiment [1]; 100 to 500 nM at p110 γ (RAW264.7 cells); 100 to 500 nM at p110 δ (RAJI cells); 100 to 500 nM in experiment [2]; 1000 to 10000 nM in experiment [3]; 1000 to 10000 nM in experiment [4].
As to `C[C@H](NC(=O)c1c(N)nn2cccnc12)c1cc2cccc(CCc3cnn(C)c3)c2c(=O)n1-c1ccccc1` [Compound 66], the values for the IC50 (in experiment [1]; on p110 γ (RAW264.7 cells); against p110 δ (RAJI cells)) were 500 to 1000 nM, 1 to 10 nM and 10 to 100 nM, respectively.
Regarding `C[C@H](NC(=O)c1c(N)nn2cccnc12)c1nc2ccc(Cl)cc2c(=O)n1-c1ccccc1` [Compound 88], the IC50 in experiment [1], in experiment [2], in experiment [3] and in experiment [4] was 1000 to 10000 nM throughout.
For `C[C@H](NC(=O)c1nccnc1N)c1oc2ccc(F)cc2c(=O)c1-c1ccccc1` [Compound 97], the IC50 in experiment [1], in experiment [2], in experiment [3] and in experiment [4] was 1000 to 10000 nM each time.

The record behind these values is patent US9751888B2, “Heterocyclic compounds and uses thereof” (Infinity Pharmaceuticals, Inc., priority 2013, dated 2017).
